According to patent publication US20040261961A1, “Wood treatment solution and process for improving the preservation of wood” (priority 2001, published 2004):
Where two headings read alike, the source gives them in different places.

Legend:
Coniophora puteana = system: Coniophora puteana
Procedure: (§1) The tests were carried out by using test specimens made from spruce or pine wood. The size of specimens made of pine was approx. 20×15×2.4 cm^3 and respectively the size of the specimens made from spruce was approx. 20×12×7.2 cm^3. One half of the wood specimens were subjected to a heat treatment at 190° C. […] One half of the specimens were subjected to no heat treatment. The wood specimens were measured and weighed before the chemical treatment. Neither chemical nor heat treatment was carried out on the reference specimens that were used in the accelerated rotting tests described below.
(§2) The temperature of the solution was 40-50° C. In the vessel there prevailed a pressure of approx. 150 kPa (1.5 bar), by means of which the solution was “forced” into the wood. The treatment time was 2 h. After the chemical treatment the wood specimens were dried in an incubator overnight at 80-90° C.
(§3) In the next phase the specimens treated above were sent to a rot fungus test. European standard EN 113 was applied in carrying out the test. The wood was exposed to conditions as rigorous as possible with respect to decay: temperature was approx. 30° C. and humidity 100%, and bad rot fungi such as Poria placenta, Gloeophyllum trabeum and Coniophora puteana had been introduced into the testing space (culture flask). These fungi are present in all rotting objects. The test lasted for 4 months. […] The rotting of such wood should in an accelerated rotting test be such that the weight loss is at least 20% with each fungus species. The specimens were weighed before the beginning of the test.
(§4) The results of the accelerated rotting tests for spruce are shown in Tables 2-4 and for pine in Tables 5-7.

Gloeophyllum trabeum = system: Gloeophyllum trabeum
Procedure: as §1, §2, §3, §4

Poria placenta = system: Poria placenta
Procedure: as §1, §2, §3, §4

[1] = system: Poria placenta, Gloeophyllum trabeum and Coniophora puteana; settings: Ca formate treatment in addition to heat treatment
Procedure: as §3, §4

[2] = board kept several days in strong potassium formate solution; buried in garden plot from summer to following summer
Excerpt: A board specimen was kept for several days in a strong potassium formate solution. After impregnation, the board was in summer buried in a garden plot together with untreated board taken from the same board specimen.

rot fungi = settings: closed and humid space containing rot fungi; potassium formate dissolved in water
Procedure: Next, a test was performed in which a piece of wood was impregnated with potassium formate. This and an untreated wood specimen were placed in a closed and humid space containing rot fungi.

Structure (SMILES): O=C[O-].O=C[O-].[Ca+2] [Ca formate, calcium formate]
- Rot resistance class according to standard EN 350-1994 (Coniophora puteana; treated pine): Class 1
- Rot resistance class according to standard EN 350-1994 (Coniophora puteana; treated spruce): Class 1
- Rot resistance class according to standard EN 350-1994 (Gloeophyllum trabeum; treated pine): Class 1
- Rot resistance class according to standard EN 350-1994 (Gloeophyllum trabeum; treated spruce): Class 1
- Rot resistance class according to standard EN 350-1994 (Poria placenta; treated pine): Class 3
- Rot resistance class according to standard EN 350-1994 (Poria placenta; treated spruce): Class 3
- Rotting of wood (overall conclusion) [1]: prevented almost completely

Structure (SMILES): O=C[O-].[K+] [potassium formate]
- Decay of impregnated board after burial [2]: without any decay
- Decay activity in the experimental space (rot fungi): inhibited all decay activity
